Where a name gives a salt, the structure may show the parent alone.
What was measured:
[1] = target: T1, A. flavus Serine Protease (Aspergillus flavus, UniProt P35211); assay: Residual serine protease activity after preincubation with serine protease inhibitors; type: biochemical; details: for Prevention of hydrolysis of Suc-Ala-Ala-Pro-Leu-pNA by A. flavus serine protease (in words): summary of Table 3
T1 construct: The extracellular serine proteases of A. fumigatus and A. flavus were purified from 5 day cultures; endogenous in cells; host or cells: Aspergillus flavus 5-day culture, extracellular fluid, bacitracin-Sepharose 4B
T1 sequence (P35211 122-403): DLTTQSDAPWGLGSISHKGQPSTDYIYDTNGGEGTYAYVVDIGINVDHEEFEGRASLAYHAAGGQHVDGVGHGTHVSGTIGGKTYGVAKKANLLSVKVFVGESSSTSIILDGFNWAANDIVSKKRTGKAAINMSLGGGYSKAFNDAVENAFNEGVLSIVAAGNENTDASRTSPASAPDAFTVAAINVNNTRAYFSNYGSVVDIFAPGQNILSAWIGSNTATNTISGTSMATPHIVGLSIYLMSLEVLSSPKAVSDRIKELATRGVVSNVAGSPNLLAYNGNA
Description: (§1) The serine protease inhibitors 4-carboxamido-substituted cephem (L-658,758), (S-(R*,S*))-4-((3,3-diethyl-1-((1-(4-methyl-phenyl)butylamino)carbonyl)-4-oxo-2-azetidinyl)oxy)-benzeneacetic acid 2-amino-2-methyl-1-propanol salt (L-680, 833) are known to irreversibly bind to the active site of the elastolytic serine protease obtained from neutrophils. It is also known that the serine protease inhibitor PMSF irreversibly binds to the active site of all serine proteases. The ability of the serine protease inhibitors L-658,758 and L-680,833, both of which were obtained from Merck Chemical Company, Rahway, N.J., and PMSF to block the proteolytic activity of the elastolytic serine proteases from Aspergillus fumigatus and Aspergillus flavus were tested as follows.
(§2) Reaction mixtures for each protease were prepared by adding the protease to 0.1M Hepes, pH 7.5. The experimental samples were then preincubated for 30 minutes at 22° C. with 1 mM of the inhibitors. At the end of the 30 minute pre-incubation, the chromogenic substrate Suc-Ala-Ala-Pro-Leu-p-Na at a final concentration of 1 mM was added to each sample. The enzyme activity in the samples was monitored by measuring the release of pNA from the chromogenic substrate at 22° C. during a 10 minute reaction time. The enzyme activity in each experimental sample as a percentage of the enzyme activity in the control sample which was taken to be 100% was then determined.

[2] = target: T2, A. fumigatus Serine Protease (Aspergillus fumigatus, UniProt P28296); assay: as above; type: biochemical; details: for Serine protease (SP) activity (%), A. fumigatus Serine Protease: inhibitor 1 mM, pH 7.5, 30 min preincubation at 22° C., control = 100%; for Prevention of hydrolysis of Suc-Ala-Ala-Pro-Leu-pNA by A. fumigatus serine protease (in words): summary of Table 3
T2 construct: The extracellular serine proteases of A. fumigatus and A. flavus were purified from 5 day cultures; endogenous in cells; host or cells: Aspergillus fumigatus 5-day culture, extracellular fluid, bacitracin-Sepharose 4B
T2 sequence (P28296 122-403): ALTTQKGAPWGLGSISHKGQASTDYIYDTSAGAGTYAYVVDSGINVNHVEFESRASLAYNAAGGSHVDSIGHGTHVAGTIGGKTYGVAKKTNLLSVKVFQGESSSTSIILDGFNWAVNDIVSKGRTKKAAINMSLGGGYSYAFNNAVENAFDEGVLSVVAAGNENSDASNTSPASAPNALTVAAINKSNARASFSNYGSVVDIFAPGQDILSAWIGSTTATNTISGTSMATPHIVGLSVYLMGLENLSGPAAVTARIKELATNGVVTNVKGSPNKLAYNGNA
Description: as §1, §2

[3] = target: porcine pancreatic elastolytic serine protease (Sus scrofa, UniProt P00772); assay: as above; type: biochemical; details: for Reduction of the activity of porcine serine protease (in words): summary of Table 3
porcine pancreatic elastolytic serine protease, sequence (P00772 27-266): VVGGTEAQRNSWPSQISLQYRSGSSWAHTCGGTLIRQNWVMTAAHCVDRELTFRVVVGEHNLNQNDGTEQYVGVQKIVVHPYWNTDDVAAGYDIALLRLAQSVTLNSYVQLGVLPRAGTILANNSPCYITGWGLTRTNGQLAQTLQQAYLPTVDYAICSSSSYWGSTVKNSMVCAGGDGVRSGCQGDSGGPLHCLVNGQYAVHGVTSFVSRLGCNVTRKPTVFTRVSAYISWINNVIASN
Protocol: as §2

[4] = statement without test; cited from earlier work
[5] = background statement; cited from earlier work
[6] = test system: CC(C)C[C@H](NC(=O)[C@@H]1CCCN1C(=O)[C@H](C)NC(=O)[C@H](C)NC(=O)CCC(=O)O)C(=O)Nc1ccc([N+](=O)[O-])cc1; assay: purified protein, by the assay type; details: other: 22° C., pH 8.0, Lineweaver-Burk plot
Protocol: (§3) First the Km values of the elastolytic serine proteases from A. fumigatus and A. flavus were calculated. […] The Km of the elastolytic serine proteases from A. fumigatus and A. flavus were determined using the synthetic chromogenic molecule Suc-Ala-Ala-Pro-Leu-pNa as a substrate. Reaction mixtures were prepared containing 5 μm of various concentrations of the chromogenic substrate dissolved in dimethyl sulfoxide, 990 μm of 0.1M Tris-HCl, buffer pH 8.0, and 5 μm of the aspergillus protease (0.65 mg/ml). The release of pNa from the substrate and the subsequent increase in absorbance of the reaction mixture at 410 nm was monitored at 22° C. for 10 minutes using a Hewlett Packard 8451A diode array spectrophotometer. The initial rates of the enzymatic reaction at 22° C. were then determined for each concentration of substrate and the reciprocals plotted on a Lineweaver-Burk plot.
(§4) Next the ability of the reversible subtilisin-type inhibitors Barley ASI, purified SSI, and recombinant SSI and of the reversible chymotrypsin-type inhibitors Eglin C, potato protease I1, and potato protease I2 to block hydrolysis of the synthetic chromogenic substrate by the aspergillus elastolytic serine proteases was evaluated. Various concentrations of each inhibitor were pre-incubated for 5 minutes in samples containing the buffer and protease. […]

[7] = Toxicity of the composition in irradiated, uninoculated mice; type: in vivo, Balb/c mice; details: Experiment 1, seven 10 μl treatments of the 50 mg/ml composition over 48 hours
Protocol: Tests were conducted to assess the effect of treatment with the pharmaceutical compositions of the present invention on the pathogenesis of invasive pulmonary aspergillosis in immunocompromised animals. To prevent secondary bacterial or viral infections in the treated and control animals, pathogen-free eight-week old female Balb/c mice were housed in a Bioclean laminar flow hood and provided with oxytetracylcine (100 mg/l)-neomycin sulfate (10 mg/l), pH 2.5, from 7 days prior to irradiation until the end of each experiment. Following seven days of treatment with the antibiotics, one group of animals was made immunodeficient by exposure to 400 rads of gamma radiation from a Cesium 137 source.
To test the toxicity of the pharmaceutical composition of example 1, a second group of irradiated mice, inoculated with 30 ul of Tween alone were treated with a […] the pharmaceutical composition from example 1 according to the same schedule for a total of seven treatments.
Twenty-five, irradiated, uninoculated animals were also treated with […] of the pharmaceutical composition of example 4 according to the same schedule to assess the toxicity of the composition containing potato protease inhibitor in immunocompromised animals. The effect of treatment with the pharmaceutical composition of example 4 on the survival of uninoculated and aspergillus-inoculated animals is shown in Table 7.

[8] = target: A. fumigatus elastolytic serine protease (Aspergillus fumigatus, UniProt P28296); assay: Inhibition constants (Ki) of reversible inhibitors for A. fumigatus elastolytic serine protease, chromogenic substrate; details: summary of Table 2
A. fumigatus elastolytic serine protease, sequence (P28296 122-403): as the sequence (P28296 122-403) above
Protocol: as §3, §4

[9] = inhibitor 1 mM, pH 7.5, 30 min preincubation at 22° C., control = 100%

CO[C@H]1C(=O)N2C(C(=O)N3CCC[C@H]3C(=O)O)=C(COC(C)=O)CS(=O)(=O)[C@H]12 [L658,758, 4-carboxamido-substituted cephem]
Serine protease (SP) activity (%), A. flavus Serine Protease [1, 9]: 91% | Prevention of hydrolysis of Suc-Ala-Ala-Pro-Leu-pNA by A. flavus serine protease (in words) [1]: ineffective | Serine protease (SP) activity (%), A. fumigatus Serine Protease [2]: 93% | Prevention of hydrolysis of Suc-Ala-Ala-Pro-Leu-pNA by A. fumigatus serine protease (in words) [2]: ineffective | Serine protease (SP) activity (%), Porcine pancreas Serine Protease [3, 9]: 6.6% | Reduction of the activity of porcine serine protease (in words) [3]: effective at reducing the activity

CCC[C@@H](NC(=O)N1C(=O)C(CC)(CC)[C@@H]1Oc1ccc(CC(=O)O)cc1)c1ccc(C)cc1 [L680,833, (S-(R*,S*))-4-((3,3-diethyl-1-((1-(4-methyl-phenyl)butylamino)carbonyl)-4-oxo-2-azetidinyl)oxy)-benzeneacetic acid 2-amino-2-methyl-1-propanol salt]
activity at 1000 µM ([1]; inhibitor 1 mM, pH 7.5, 30 min preincubation at 22° C., control = 100%, read-out: Serine protease (SP) activity (%), A. flavus Serine Protease): 89% | Prevention of hydrolysis of Suc-Ala-Ala-Pro-Leu-pNA by A. flavus serine protease (in words) [1]: ineffective | activity at 1000 µM ([2]; pH 7.5, read-out: Serine protease (SP) activity (%), A. fumigatus Serine Protease): 93% | Prevention of hydrolysis of Suc-Ala-Ala-Pro-Leu-pNA by A. fumigatus serine protease (in words) [2]: ineffective | activity at 1000 µM ([3]; inhibitor 1 mM, pH 7.5, 30 min preincubation at 22° C., control = 100%, read-out: Serine protease (SP) activity (%), Porcine pancreas Serine Protease): 12% | Reduction of the activity of porcine serine protease (in words) [3]: effective at reducing the activity

O=S(=O)(F)Cc1ccccc1 [PMSF]
Serine protease (SP) activity (%), A. flavus Serine Protease [1, 9]: 0% | Prevention of hydrolysis of Suc-Ala-Ala-Pro-Leu-pNA by A. flavus serine protease (in words) [1]: reduced the enzymatic activity | Serine protease (SP) activity (%), A. fumigatus Serine Protease [2]: 0.89% | Prevention of hydrolysis of Suc-Ala-Ala-Pro-Leu-pNA by A. fumigatus serine protease (in words) [2]: reduced the enzymatic activity | Serine protease (SP) activity (%), Porcine pancreas Serine Protease [3, 9]: 0% | Reduction of the activity of porcine serine protease (in words) [3]: reduced the enzymatic activity | Toxicity (in words) [4]: highly toxic

C[C@@H]1[C@H](O)[C@@H](C)/C=C/C=C/C=C/C=C/C=C/C=C/C=C/[C@H](O[C@@H]2O[C@H](C)[C@@H](O)[C@H](N)[C@@H]2O)C[C@@H]2O[C@](O)(C[C@@H](O)C[C@@H](O)[C@H](O)CC[C@@H](O)C[C@@H](O)CC(=O)O[C@H]1C)C[C@H](O)[C@H]2C(=O)O [amphotericin B]
Nephrotoxicity [5]: serious side effect

A. flavus elastolytic serine protease (Aspergillus flavus)
Km [6]: 570 µM

A. fumigatus elastolytic serine protease (Aspergillus fumigatus Af293)
Km [6]: 350 µM

B1: SSI: protein produced and secreted by streptomyces, purified from Streptomyces albogriseolus strains (protein, UniProt P01006 32-144, looked up)
Subtilisin inhibitor: DAPSALYAPSALVLTVGKGVSATTAAPERAVTLTCAPGPSGTHPAAGSACADLAAVGGDLNALTRGEDVMCPMVYDPVLLTVDGVWQGKRVSYERVFSNECEMNAHGSSVFAF
Mortality of treated, uninoculated, immunocompromised animals [7]: no mortality | Inhibition of the elastolytic serine protease from A. fumigatus (in words) [8]: greatest inhibitory effect

— patent US5739283A, “Prevention of invasive pulmonary aspergillosis with serine proteinase inhibitors” (The Ohio State Research Foundation, priority 1995, dated 1998)
